Experimental data published in patent publication US8835462B2, “Macrocyclic picolinamides as fungicides” (Dow AgroSciences LLC, priority 2012, dated 2014).
Where two headings read alike, the source gives them in different places.

Key:
Format in all cases: in vivo
[1] = tested on: Mycosphaerella graminicola; Anamorph: Septoria tritici; test: Leaf blotch of wheat (SEPTTR) fungicidal activity on wheat seedlings; conditions: Zymoseptoria tritici
Method: Evaluation of Fungicidal Activity: Leaf Blotch of Wheat (Mycosphaerella Graminicola; Anamorph: Septoria tritici; Bayer Code […]) Technical grades of materials were dissolved in acetone, which were then mixed with nine volumes of water containing 110 ppm Triton X-100. The fungicide solutions were applied onto wheat seedlings using an automated booth sprayer to run-off. All sprayed plants were allowed to air dry prior to further handling. Wheat plants (variety Yuma) were grown from seed in a greenhouse in 50% mineral soil/50% soil-less Metro mix until the first leaf was fully emerged, with 7-10 seedlings per pot. These plants were inoculated with an aqueous spore suspension of Septoria tritici either prior to or after fungicide treatments. After inoculation the plants were kept in 100% relative humidity (one day in a dark dew chamber followed by two to three days in a lighted dew chamber at 20° C.) to permit spores to germinate and infect the leaf. The plants were then transferred to a greenhouse set at 20° C. for disease to develop. When disease symptoms were fully expressed on the 1st leaves of untreated plants, infection levels were assessed on a scale of 0 to 100 percent disease severity. Percent disease control was calculated using the ratio of disease severity on treated plants relative to untreated plants.

Alternaria solani = test: Tomato early blight (ALTESO) fungicidal activity; conditions: 24 h, 1 Day Protectant, read-out: Disease Control ALTESO 1DP
Method: Technical grades of materials were dissolved in acetone, which were then mixed with nine volumes of water containing 110 ppm Triton X-100. The fungicide solutions were applied onto wheat seedlings using an automated booth sprayer to run-off. All sprayed plants were allowed to air dry prior to further handling. Wheat plants (variety Yuma) were grown from seed in a greenhouse in 50% mineral soil/50% soil-less Metro mix until the first leaf was fully emerged, with 7-10 seedlings per pot. These plants were inoculated with an aqueous spore suspension of Septoria tritici either prior to or after fungicide treatments. After inoculation the plants were kept in 100% relative humidity (one day in a dark dew chamber followed by two to three days in a lighted dew chamber at 20° C.) to permit spores to germinate and infect the leaf. The plants were then transferred to a greenhouse set at 20° C. for disease to develop. When disease symptoms were fully expressed on the 1st leaves of untreated plants, infection levels were assessed on a scale of 0 to 100 percent disease severity. Percent disease control was calculated using the ratio of disease severity on treated plants relative to untreated plants. Evaluation of Fungicidal Activity: Tomato Early Blight (Alternaria Solani; Bayer Code […]) Tomato plants (variety Outdoor girl) were propagated in soil-less Metro mix, with each pot having one plant, and used when 12 to 14 days old. Test plants were inoculated with an aqueous spore suspension of Alternaria solani 24 hr after fungicide treatments. After inoculation the plants were kept in 100% relative humidity (one day in a dark dew chamber followed by two to three days in a lighted dew chamber at 20° C.) to permit spores to germinate and infect the leaf. The plants were then transferred to a growth room at 22° C. for disease to develop. Fungicide formulation, application and disease assessment on the sprayed leaves followed the procedures as described in the Example A.

Leptosphaeria nodorum = test: Wheat glume blotch (LEPTNO) fungicidal activity; conditions: Parastagonospora nodorum, 24 h, 1 Day Protectant, read-out: Disease Control LEPTNO 1DP
Method: Technical grades of materials were dissolved in acetone, which were then mixed with nine volumes of water containing 110 ppm Triton X-100. The fungicide solutions were applied onto wheat seedlings using an automated booth sprayer to run-off. All sprayed plants were allowed to air dry prior to further handling. Wheat plants (variety Yuma) were grown from seed in a greenhouse in 50% mineral soil/50% soil-less Metro mix until the first leaf was fully emerged, with 7-10 seedlings per pot. These plants were inoculated with an aqueous spore suspension of Septoria tritici either prior to or after fungicide treatments. After inoculation the plants were kept in 100% relative humidity (one day in a dark dew chamber followed by two to three days in a lighted dew chamber at 20° C.) to permit spores to germinate and infect the leaf. The plants were then transferred to a greenhouse set at 20° C. for disease to develop. When disease symptoms were fully expressed on the 1st leaves of untreated plants, infection levels were assessed on a scale of 0 to 100 percent disease severity. Percent disease control was calculated using the ratio of disease severity on treated plants relative to untreated plants. Evaluation of Fungicidal Activity: Wheat Glume Blotch (Leptosphaeria Nodorum; Bayer Code […]) Wheat plants (variety Yuma) were grown from seed in a greenhouse in 50% mineral soil/50% soil-less Metro mix until the first leaf was fully emerged, with 7-10 seedlings per pot. These plants were inoculated with an aqueous spore suspension of Leptosphaeria nodorum 24 hr after fungicide treatments. After inoculation the plants were kept in 100% relative humidity (one day in a dark dew chamber followed by two days in a lighted dew chamber at 20° C.) to permit spores to germinate and infect the leaf. The plants were then transferred to a greenhouse set at 20° C. for disease to develop. Fungicide formulation, application and disease assessment followed the procedures as described in the Example A.

[2] = tested on: Blumeria graminis f. sp. hordei; test: Barley powdery mildew (ERYSGH) fungicidal activity; conditions: 24 h, 1 Day Protectant, read-out: Disease Control ERYSGH 1DP
Method: Technical grades of materials were dissolved in acetone, which were then mixed with nine volumes of water containing 110 ppm Triton X-100. The fungicide solutions were applied onto wheat seedlings using an automated booth sprayer to run-off. All sprayed plants were allowed to air dry prior to further handling. Wheat plants (variety Yuma) were grown from seed in a greenhouse in 50% mineral soil/50% soil-less Metro mix until the first leaf was fully emerged, with 7-10 seedlings per pot. These plants were inoculated with an aqueous spore suspension of Septoria tritici either prior to or after fungicide treatments. After inoculation the plants were kept in 100% relative humidity (one day in a dark dew chamber followed by two to three days in a lighted dew chamber at 20° C.) to permit spores to germinate and infect the leaf. The plants were then transferred to a greenhouse set at 20° C. for disease to develop. When disease symptoms were fully expressed on the 1st leaves of untreated plants, infection levels were assessed on a scale of 0 to 100 percent disease severity. Percent disease control was calculated using the ratio of disease severity on treated plants relative to untreated plants. Evaluation of Fungicidal Activity: Barley Powdery Mildew (Blumeria Graminis f. sp. Hordei; Synonym: Erysiphe Graminis f. sp. Hordei; Bayer Code […]) Barley seedlings (variety Harrington) were propagated in soil-less Metro mix, with each pot having 8 to 12 plants, and used in the test when first leaf was fully emerged. Test plants were inoculated by dusting with infected stock plants 24 hr after fungicide treatments. After inoculation the plants were kept in a greenhouse set at 20° C. for disease to develop. Fungicide formulation, application and disease assessment on the sprayed leaves followed the procedures as described in the Example A.

[3] = 24 h, 1 Day Protectant, read-out: Disease Control SEPTTR 1 DP
[4] = 72 h, 3 Day Curative, read-out: Disease Control SEPTTR 3 DC

Structure (SMILES) | pest or weed control at 100 ppm [1, 3] | pest or weed control at 100 ppm [1, 4] | pest or weed control at 100 ppm (Alternaria solani) | pest or weed control at 100 ppm (Leptosphaeria nodorum) | pest or weed control at 100 ppm [2]
CCCO[C@@H]1[C@@H](Cc2ccccc2)COC[C@H](NC(=O)c2nccc(OC)c2OCOC(C)=O)C(=O)O[C@H]1C [Compound 22] | 80 to 100% | 80 to 100% | 80 to 100% | 80 to 100% | 80 to 100%
COc1ccnc(C(=O)N[C@H]2COC[C@H](Cc3ccccc3)[C@@H](OCCCC(F)(F)F)[C@H](C)OC2=O)c1OCOC(C)=O [Compound 23] | 80 to 100% | 80 to 100% | 80 to 100% | 80 to 100% | 80 to 100%
CCCCCO[C@@H]1[C@@H](Cc2ccccc2)COC[C@H](NC(=O)c2nccc(OC)c2OCOC(C)=O)C(=O)O[C@H]1C [Compound 26] | 80 to 100% | 80 to 100% | 80 to 100% | 80 to 100% | 80 to 100%
COc1ccnc(C(=O)N[C@H]2COC[C@H](Cc3ccccc3)[C@@H](OCCCc3ccccc3)[C@H](C)OC2=O)c1OCOC(C)=O [Compound 34] | 80 to 100% | 80 to 100% | 80 to 100% | 80 to 100% | 80 to 100%
COC(=O)/C=C/O[C@@H]1[C@@H](Cc2ccccc2)COC[C@H](NC(=O)c2nccc(OC)c2OCOC(C)=O)C(=O)O[C@H]1C [Compound 36] | 80 to 100% | 80 to 100% | 0 to 80% | 80 to 100% | 80 to 100%
COc1ccnc(C(=O)N[C@H]2COC[C@H](Cc3ccccc3)[C@@H](Oc3ccccc3)[C@H](C)OC2=O)c1OCOC(C)=O [Compound 40] | 80 to 100% | 80 to 100% | 80 to 100% | 80 to 100% | 
COc1ccnc(C(=O)N[C@H]2COC[C@H](Cc3ccccc3)[C@@H](OCC(F)F)[C@H](C)OC2=O)c1OCOC(C)=O [Compound 44] | 80 to 100% | 80 to 100% | 0 to 80% | 80 to 100% | 
COc1ccnc(C(=O)N[C@H]2COC[C@H](Cc3ccccc3)[C@@H](OCCC(C)OC)[C@H](C)OC2=O)c1OCOC(C)=O (stereo partly shown) [Compound 46] | 80 to 100% | 80 to 100% | 0 to 80% | 80 to 100% | 
